Inconclusive results and toxic doses are left out. No stated cut-off is given here; in the data, active means T/C of 150% or more; inactive means T/C below 125%.
System: L1210 leukemia ip in BDF1 mice, survival T/C
Assay: NCI In Vivo Anticancer Drug Screen. Data for tumor model L1210 Leukemia (intraperitoneal) in B6D2F1 (BDF1) mice
Conditions: endpoint: mean survival time, higher = longer survival
In short: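 Tumor was transplanted into mice, which were then dosed with test compound or vehicle alone. Survival was recorded for each group, and the treated figure was expressed relative to the control figure.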

[1] = dose: 25.0 mg/kg/injection, schedule: Q04DX003 (ip), vehicle: saline
[2] = dose: 50.0 mg/kg/injection, schedule: Q04DX003 (ip), vehicle: saline
[3] = dose: 100.0 mg/kg/injection, schedule: Q01DX009 (ip), vehicle: Klucel (hydroxypropylcellulose) (HPC)
[4] = dose: 200.0 mg/kg/injection, schedule: Q01DX009 (ip), vehicle: Klucel (hydroxypropylcellulose) (HPC)
[5] = dose: 400.0 mg/kg/injection, schedule: Q01DX009 (ip), vehicle: Klucel (hydroxypropylcellulose) (HPC)
[6] = dose: 100.0 mg/kg/injection, schedule: Q04DX003 (ip), vehicle: saline with Tween-80
[7] = dose: 200.0 mg/kg/injection, schedule: Q04DX003 (ip), vehicle: saline with Tween-80
[8] = dose: 12.5 mg/kg/injection, schedule: Q04DX003 (ip), vehicle: Klucel (hydroxypropylcellulose) (HPC)
[9] = dose: 25.0 mg/kg/injection, schedule: Q01DX009 (ip), vehicle: Klucel (hydroxypropylcellulose) (HPC)
[10] = dose: 25.0 mg/kg/injection, schedule: Q04DX003 (ip), vehicle: Klucel (hydroxypropylcellulose) (HPC)
[11] = dose: 50.0 mg/kg/injection, schedule: Q01DX009 (ip), vehicle: Klucel (hydroxypropylcellulose) (HPC)
[12] = dose: 50.0 mg/kg/injection, schedule: Q04DX003 (ip), vehicle: Klucel (hydroxypropylcellulose) (HPC)
[13] = dose: 100.0 mg/kg/injection, schedule: Q04DX003 (ip), vehicle: saline
[14] = dose: 100.0 mg/kg/injection, schedule: Q04DX003 (ip), vehicle: Klucel (hydroxypropylcellulose) (HPC)
[15] = dose: 200.0 mg/kg/injection, schedule: Q04DX003 (ip), vehicle: Klucel (hydroxypropylcellulose) (HPC)
[16] = dose: 100.0 mg/kg/injection, schedule: Q04DX002 (ip), vehicle: saline with Tween-80
[17] = dose: 200.0 mg/kg/injection, schedule: Q04DX002 (ip), vehicle: saline with Tween-80
[18] = dose: 400.0 mg/kg/injection, schedule: Q04DX002 (ip), vehicle: saline with Tween-80
[19] = dose: 75.0 mg/kg/injection, schedule: Q01DX001 (ip), vehicle: other
[20] = dose: 150.0 mg/kg/injection, schedule: Q01DX001 (ip), vehicle: other
[21] = dose: 50.0 mg/kg/injection, schedule: Q01DX009 (ip), vehicle: saline with Tween-80
[22] = dose: 100.0 mg/kg/injection, schedule: Q01DX009 (ip), vehicle: saline with Tween-80
[23] = dose: 200.0 mg/kg/injection, schedule: Q01DX009 (ip), vehicle: saline with Tween-80
[24] = dose: 400.0 mg/kg/injection, schedule: Q04DX003 (ip), vehicle: saline with Tween-80
[25] = dose: 100.0 mg/kg/injection, schedule: Q01DX001 (ip), vehicle: saline
[26] = dose: 200.0 mg/kg/injection, schedule: Q01DX001 (ip), vehicle: saline
[27] = dose: 200.0 mg/kg/injection, schedule: Q04DX003 (ip), vehicle: saline
[28] = dose: 400.0 mg/kg/injection, schedule: Q01DX001 (ip), vehicle: saline
[29] = dose: 400.0 mg/kg/injection, schedule: Q04DX003 (ip), vehicle: saline

Measured: T/C

NCCc1ccc(OCc2ccccc2)c(OCc2ccccc2)c1
inactive: dose: 12.5 mg/kg/injection, schedule: Q01DX009 (ip), vehicle: saline 108 % of control | dose: 12.5 mg/kg/injection, schedule: Q04DX003 (ip), vehicle: saline 98 % of control | dose: 25.0 mg/kg/injection, schedule: Q01DX009 (ip), vehicle: saline 97 % of control | [1] 102 % of control | [2] 98 % of control

O=C(Nc1cccc(F)c1)Nc1cccc(C(F)(F)F)c1
inactive: [3] 96 % of control | [4] 95 % of control | [5] 105 % of control

S=C(Nc1cccc(Cl)c1)Nc1cccc(Cl)c1
inactive: [6] 94 % of control | [7] 97 % of control

CCN1CSC(=S)N(CC)C1
inactive: [8] 96 % of control | [9] 103 % of control | [10] 112 % of control | [11] 109 % of control | [12] 103 % of control

O=S(=O)(c1ccc(Cl)cc1)C(F)F
inactive: dose: 12.5 mg/kg/injection, schedule: Q01DX009 (ip), vehicle: Klucel (hydroxypropylcellulose) (HPC) 89 % of control | [8] 91 % of control | [9] 93 % of control | [10] 89 % of control | [11] 91 % of control | [12] 97 % of control

NC(N)=NCCCOc1ccc([N+](=O)[O-])cc1
inactive: [1] 96 % of control | [2] 100 % of control | [6] 101 % of control | [13] 94 % of control

CC1CCc2nc(C#N)c(N)nc2C1 (stereo not given)
inactive: [11] 103 % of control | [3] 97 % of control | [4] 106 % of control

N=C(N)c1cccc(CCCCc2ccc(N)cc2)c1
inactive: [14] 94 % of control | [15] 99 % of control

CCOC(=O)/C=N/Nc1ccc([N+](=O)[O-])cc1[N+](=O)[O-]
inactive: dose: 50.0 mg/kg/injection, schedule: Q01DX001 (ip), vehicle: other 95 % of control | dose: 100.0 mg/kg/injection, schedule: Q01DX001 (ip), vehicle: other 90 % of control | dose: 200.0 mg/kg/injection, schedule: Q01DX001 (ip), vehicle: other 95 % of control | dose: 400.0 mg/kg/injection, schedule: Q01DX001 (ip), vehicle: other 92 % of control

COc1ccc(Cl)cc1NC(=O)Nc1cc(C)ccn1
inactive: [3] 104 % of control | [4] 100 % of control | [5] 88 % of control

CCOc1ccc(N=O)c(O)c1
inactive: dose: 75.0 mg/kg/injection, schedule: Q01DX001 (ip), vehicle: carboxymethylcellulose (CMC) 101 % of control | dose: 150.0 mg/kg/injection, schedule: Q01DX001 (ip), vehicle: carboxymethylcellulose (CMC) 90 % of control

CC1(CO)CC2C=CC1C2 (stereo not given)
inactive: [16] 99 % of control | [17] 99 % of control | [18] 99 % of control

CP1CCC(O)(C(C)(C)C)CC1 (stereo not given)
inactive: [19] 101 % of control | [20] 91 % of control

COc1ccc(C(CC(=O)c2ccc3c(c2)OCO3)c2c(O)c3ccccc3oc2=O)cc1OC (stereo not given)
inactive: [21] 96 % of control | [22] 96 % of control | [6] 94 % of control | [23] 91 % of control | [7] 89 % of control | [24] 88 % of control

COc1cc(C2=N/C(=C\c3cc(Br)cc(Br)c3O)C(=O)O2)cc(OC)c1OC
inactive: dose: 25.0 mg/kg/injection, schedule: Q04DX002 (ip), vehicle: saline with Tween-80 97 % of control | dose: 50.0 mg/kg/injection, schedule: Q04DX002 (ip), vehicle: saline with Tween-80 90 % of control | [16] 90 % of control | [17] 95 % of control | [18] 95 % of control

O=C(NCCF)NC1C=CCCC1 (stereo not given)
inactive: [19] 100 % of control | [20] 95 % of control | dose: 300.0 mg/kg/injection, schedule: Q01DX001 (ip), vehicle: other 94 % of control

C=CC(C)(O)C(C)(C)C (stereo not given)
inactive: [21] 100 % of control | [22] 96 % of control | [23] 100 % of control

CC(C)OCCS(=O)(=O)Oc1ncc(Cl)cc1Cl
inactive: dose: 12.5 mg/kg/injection, schedule: Q01DX009 (ip), vehicle: saline with Tween-80 113 % of control | dose: 25.0 mg/kg/injection, schedule: Q01DX009 (ip), vehicle: saline with Tween-80 94 % of control | [21] 96 % of control | [6] 94 % of control | [7] 96 % of control | dose: 400.0 mg/kg/injection, schedule: Q01DX009 (ip), vehicle: saline with Tween-80 90 % of control | [24] 94 % of control

COC1OCC(O)C(O)C1O (stereo not given)
inactive: [25] 92 % of control | [13] 98 % of control | [26] 95 % of control | [27] 106 % of control | [28] 95 % of control | [29] 101 % of control

CC(=O)NCCCC1CCCCC1CN (stereo not given)
inactive: [13] 104 % of control | [27] 114 % of control | [29] 114 % of control

NC(N)=NCCc1ccc(Cl)cc1
inactive: dose: 50.0 mg/kg/injection, schedule: Q01DX001 (ip), vehicle: Klucel (hydroxypropylcellulose) (HPC) 102 % of control

C1CN1P1(N2CC2)=NP(N2CC2)(N2CC2)=NP(N2CC2)(N2CC2)=NP(N2CC2)(N2CC2)=N1
inactive: dose: 4.4 mg/kg/injection, schedule: Q04DX003 (ip), vehicle: saline 114 % of control | dose: 6.6 mg/kg/injection, schedule: Q04DX003 (ip), vehicle: saline 116 % of control | dose: 10.0 mg/kg/injection, schedule: Q01DX001 (ip), vehicle: saline 118 % of control | dose: 10.0 mg/kg/injection, schedule: Q04DX003 (ip), vehicle: saline 119 % of control | dose: 20.0 mg/kg/injection, schedule: Q04DX003 (ip), vehicle: saline 117 % of control | dose: 40.0 mg/kg/injection, schedule: Q01DX001 (ip), vehicle: saline 124 % of control | dose: 40.0 mg/kg/injection, schedule: Q04DX003 (ip), vehicle: saline 109 % of control

O=Cc1c(Cl)[nH]c2ccccc12
inactive: dose: 50.0 mg/kg/injection, schedule: Q04DX002 (ip), vehicle: Klucel (hydroxypropylcellulose) (HPC) 90 % of control | dose: 100.0 mg/kg/injection, schedule: Q04DX002 (ip), vehicle: Klucel (hydroxypropylcellulose) (HPC) 93 % of control | dose: 200.0 mg/kg/injection, schedule: Q04DX002 (ip), vehicle: Klucel (hydroxypropylcellulose) (HPC) 101 % of control

CCCCOC(=O)C=O
inactive: [21] 106 % of control | [22] 97 % of control

CCCCCCCCCCCCCCCCCCNC(=O)Nc1ccc(C)cc1
inactive: dose: 100.0 mg/kg/injection, schedule: Q01DX009 (sc), vehicle: olive oil, sesame oil, peanut oil 112 % of control | dose: 100.0 mg/kg/injection, schedule: Q04DX003 (sc), vehicle: olive oil, sesame oil, peanut oil 114 % of control | dose: 200.0 mg/kg/injection, schedule: Q01DX009 (sc), vehicle: olive oil, sesame oil, peanut oil 106 % of control | dose: 200.0 mg/kg/injection, schedule: Q04DX003 (sc), vehicle: olive oil, sesame oil, peanut oil 104 % of control | dose: 400.0 mg/kg/injection, schedule: Q01DX009 (sc), vehicle: olive oil, sesame oil, peanut oil 106 % of control | dose: 400.0 mg/kg/injection, schedule: Q04DX003 (sc), vehicle: olive oil, sesame oil, peanut oil 98 % of control

Nc1ncnc2c1ncn2C1OC(CO)C(NC(=O)C(CCCCNC(=O)OCc2ccccc2)NC(=O)OCc2ccccc2)C1O (stereo not given)
inactive: [25] 102 % of control | [26] 100 % of control | [28] 100 % of control

C=CCCCCCCCCCC
inactive: [12] 97 % of control | [25] 98 % of control | [14] 95 % of control | [26] 101 % of control | [15] 97 % of control | [28] 96 % of control

From PubChem BioAssay AID248 (DTP/NCI, 2004)
